# Values joined by “and” are separate entries in the source; they are usually repeats but may differ in a detail not shown here. Identical values can stand only once. Toxic doses and inconclusive results are not listed.
# System: P388 leukemia ip, CD2F1 mice, survival T/C
# Assay: NCI In Vivo Anticancer Drug Screen. Data for tumor model P388 Leukemia (intraperitoneal) in CD2F1 (CDF1) mice
# Settings: endpoint: median survival time, higher = longer survival
# Procedure, shortened: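 Mice carrying the transplanted tumor received test compound or vehicle. Survival was recorded in each group, and the value is the treated-group measurement divided by that of the vehicle-treated control group.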
# [1] = dose: 12.5 mg/kg/injection, schedule: Q01DX009 (ip), vehicle: saline with Tween-80
# [2] = dose: 50.0 mg/kg/injection, schedule: Q01DX009 (ip), vehicle: saline with Tween-80
# [3] = dose: 50.0 mg/kg/injection, schedule: Q01DX005 (ip), vehicle: saline with Tween-80
# [4] = dose: 50.0 mg/kg/injection, schedule: Q01DX005 (ip), vehicle: Klucel (hydroxypropylcellulose) (HPC)
# [5] = dose: 100.0 mg/kg/injection, schedule: Q01DX005 (ip), vehicle: Klucel (hydroxypropylcellulose) (HPC)
# [6] = dose: 200.0 mg/kg/injection, schedule: Q01DX005 (ip), vehicle: Klucel (hydroxypropylcellulose) (HPC)
# [7] = dose: 25.0 mg/kg/injection, schedule: Q01DX005 (ip), vehicle: Klucel (hydroxypropylcellulose) (HPC)
structure (smiles),measurement,setting,value
CCOC(=O)C(C(=O)c1ccccc1)c1cc(NS(=O)(=O)c2ccccc2)ccc1O (stereo not given),T/C,[1],90 % of control
same,T/C,"dose: 25.0 mg/kg/injection, schedule: Q01DX009 (ip), vehicle: saline with Tween-80",100 % of control
same,T/C,[2],105 % of control
same,T/C,"dose: 75.0 mg/kg/injection, schedule: Q04DX003 (ip), vehicle: saline with Tween-80",100 % of control
same,T/C,"dose: 150.0 mg/kg/injection, schedule: Q04DX003 (ip), vehicle: saline with Tween-80",100 % of control
same,T/C,"dose: 300.0 mg/kg/injection, schedule: Q04DX003 (ip), vehicle: saline with Tween-80",100 % of control
O=[N+]([O-])Nc1ccccn1,T/C,"dose: 100.0 mg/kg/injection, schedule: Q04DX002 (ip), vehicle: saline",114 % of control
same,T/C,"dose: 200.0 mg/kg/injection, schedule: Q04DX002 (ip), vehicle: saline",110 % of control
same,T/C,"dose: 400.0 mg/kg/injection, schedule: Q04DX002 (ip), vehicle: saline",97 % of control
O=C1NC2(CCCCC2)C(=O)N1CCCCN(CCCl)CCCl,T/C,"dose: 1.5 mg/kg/injection, schedule: Q01DX005 (ip), vehicle: saline",122 % of control
same,T/C,"dose: 6.0 mg/kg/injection, schedule: Q01DX005 (ip), vehicle: saline",119 % of control
same,T/C,"dose: 24.0 mg/kg/injection, schedule: Q01DX005 (ip), vehicle: saline",165 % of control
same,T/C,"dose: 50.0 mg/kg/injection, schedule: Q01DX005 (ip), vehicle: saline",160 % of control
same,T/C,"dose: 100.0 mg/kg/injection, schedule: Q01DX005 (ip), vehicle: saline",187 % of control
CC1(C)C(=O)c2cc3ccccc3nc2-c2ccccc21,T/C,[3],100 % of control
same,T/C,"dose: 100.0 mg/kg/injection, schedule: Q01DX005 (ip), vehicle: saline with Tween-80",99 % of control
same,T/C,"dose: 200.0 mg/kg/injection, schedule: Q01DX005 (ip), vehicle: saline with Tween-80",105 % of control
CC(C)n1c2c(c3ccccc3c1=O)C(=O)c1ccccc1-2,T/C,"dose: 12.5 mg/kg/injection, schedule: Q01DX005 (ip), vehicle: saline with Tween-80",95 % of control
same,T/C,"dose: 25.0 mg/kg/injection, schedule: Q01DX005 (ip), vehicle: saline with Tween-80",86 % of control
same,T/C,[3],86 % of control
O=C1C2OC2C(O)(CCN(Cc2ccc3c(c2)OCO3)C(=O)C(F)(F)F)C2OC12 (stereo not given),T/C,"dose: 6.25 mg/kg/injection, schedule: Q01DX001 (ip), vehicle: saline",104 % of control
same,T/C,"dose: 12.5 mg/kg/injection, schedule: Q01DX001 (ip), vehicle: saline",105 % of control
same,T/C,"dose: 25.0 mg/kg/injection, schedule: Q01DX001 (ip), vehicle: saline",106 % of control
Clc1cccc(Cl)c1C(Nc1nccs1)Nc1nccs1,T/C,[4],100 % of control
same,T/C,[5],103 % of control
same,T/C,[6],114 % of control
C=C1C(=O)OC2C1CCC(C)=C1CCC(C)(O)C12 (stereo not given),T/C,"dose: 5.0 mg/kg/injection, schedule: Q01DX009 (ip), vehicle: saline with Tween-80",97 % of control
same,T/C,"dose: 10.0 mg/kg/injection, schedule: Q01DX009 (ip), vehicle: saline with Tween-80",105 % of control
same,T/C,"dose: 20.0 mg/kg/injection, schedule: Q01DX009 (ip), vehicle: saline with Tween-80",107 % of control
same,T/C,"dose: 40.0 mg/kg/injection, schedule: Q01DX009 (ip), vehicle: saline with Tween-80",107 % of control
C1OCOCO1,T/C,[7],98 % of control
same,T/C,[4],95 % of control
same,T/C,[5],95 % of control
same,T/C,[6],109 % of control
same,T/C,"dose: 400.0 mg/kg/injection, schedule: Q01DX005 (ip), vehicle: Klucel (hydroxypropylcellulose) (HPC)",101 % of control
C(=Nc1ccccc1)Nc1ccccc1.[Cu+2],T/C,"dose: 6.25 mg/kg/injection, schedule: Q01DX009 (ip), vehicle: saline with Tween-80",100 % of control
same,T/C,[1],104 % of control and 108 % of control
COC(=O)Nc1nc2ccc(CCC(=O)c3c(C)oc(C)c3-c3ccc(NC(C)=O)cc3)cc2[nH]1,T/C,"dose: 60.0 mg/kg/injection, schedule: Q01DX005 (ip), vehicle: saline with Tween-80",99 % of control
same,T/C,"dose: 120.0 mg/kg/injection, schedule: Q01DX005 (ip), vehicle: saline with Tween-80",99 % of control
Clc1ccc(C(Cn2ccnc2)OCc2c(Cl)cccc2Cl)cc1 (stereo not given),T/C,[2],102 % of control
same,T/C,"dose: 100.0 mg/kg/injection, schedule: Q01DX009 (ip), vehicle: saline with Tween-80",97 % of control
CCN(C)N=Nc1ccc(C(N)=O)cc1,T/C,[7],101 % of control and 105 % of control
same,T/C,[4],95 % of control
same,T/C,[6],89 % of control
CCC1(c2ccccc2)C(=O)NC(=O)N(CN2CCOCC2)C1=O (stereo not given),T/C,"dose: 60.0 mg/kg/injection, schedule: Q01DX005 (ip), vehicle: Klucel (hydroxypropylcellulose) (HPC)",100 % of control
same,T/C,"dose: 120.0 mg/kg/injection, schedule: Q01DX005 (ip), vehicle: Klucel (hydroxypropylcellulose) (HPC)",100 % of control
same,T/C,"dose: 240.0 mg/kg/injection, schedule: Q01DX005 (ip), vehicle: Klucel (hydroxypropylcellulose) (HPC)",98 % of control
CN(C)C(=S)SSC(C)(C)C,T/C,[4],100 % of control
same,T/C,[5],99 % of control
same,T/C,[6],100 % of control

# Source: PubChem BioAssay AID330 (DTP/NCI, 2004)
